{
  "source": "patent US12514849B2",
  "about": "“Pharmaceutical formulations containing relacorilant, a heteroaryl-ketone fused azadecalin compound” (Corcept Therapeutics Incorporated, priority 2018, dated 2026)",
  "key": {"[1]": {"assay": "Stability of relacorilant to pH, moisture and light", "format": "physicochemical", "protocol": "Relacorilant stability and compatibility with various excipients was tested and suitable excipients were identified. […] Lauryl polyoxyl-32 glycerides (Gelucire 44/14, available from Gattefosse USA, New Jersey) in place of the stearoyl polyoxyl-32 glycerides were then used. […] This formulation was tested for stability. Stability testing included testing of some formulations for up to one year."}, "[2]": {"assay": "Compatibility/stability of relacorilant with excipients at 40° C./75% RH and 60° C.", "format": "physicochemical", "protocol": "The stability of relacorilant in a series of potential excipients was also examined for two weeks at 40° C. at 75% relative humidity, and at 60° C., including in formulations of Table I. The predominant degradation path was through formation of the aromatic decarbonylation of relacorilant with both propylene glycol monocaprylate and lauroyl polyoxyl-32 glyceride excipients. Relacorilant stability was good with both these excipients."}},
  "data": [
    {"smiles": "Cn1cc(S(=O)(=O)N2CCC3=Cc4c(cnn4-c4ccc(F)cc4)C[C@]3(C(=O)c3cc(C(F)(F)F)ccn3)C2)cn1", "note": "[Relacorilant, (R)-(1-(4-fluorophenyl)-6-((1-methyl-1H-pyrazol-4-yl)sulfonyl)-4,4a,5,6,7,8-hexahydro-1H-pyrazolo[3,4-g]isoquinolin-4a-yl)(4-(trifluoromethyl)pyridin-2-yl)methanone]", "values": [
      {"measurement": "sensitivity to moisture and light", "setting": "[1]", "value": "sensitive to both moisture and light"},
      {"measurement": "stability in acidic aqueous solutions", "setting": "[1]; acidic aqueous solutions", "value": "stable"},
      {"measurement": "stability under basic conditions", "setting": "[1]; basic conditions", "value": "sensitive to basic conditions"},
      {"measurement": "stability over time in formulations having basic pH", "setting": "[1]; basic pH, particularly pH greater than 8, versus neutral or acidic pH", "value": "significantly less stable"},
      {"measurement": "stability in neutral solutions", "setting": "[1]; neutral solutions at elevated temperatures", "value": "degrade over time"},
      {"measurement": "purity (% relacorilant of relacorilant plus relacorilant-derived impurities)", "setting": "[2]; in lauroyl polyoxyl-32 glycerides, 40° C./75% RH, 1 week", "value": 97.64, "unit": "%"},
      {"measurement": "purity (% relacorilant of relacorilant plus relacorilant-derived impurities)", "setting": "[2]; in lauroyl polyoxyl-32 glycerides, 40° C./75% RH, 2 week", "value": 97.55, "unit": "%"},
      {"measurement": "purity (% relacorilant of relacorilant plus relacorilant-derived impurities)", "setting": "[2]; in lauroyl polyoxyl-32 glycerides, 60° C., 1 week", "value": 97.22, "unit": "%"},
      {"measurement": "purity (% relacorilant of relacorilant plus relacorilant-derived impurities)", "setting": "[2]; in lauroyl polyoxyl-32 glycerides, 60° C., 2 week", "value": 96.77, "unit": "%"},
      {"measurement": "purity (% relacorilant of relacorilant plus relacorilant-derived impurities)", "setting": "[2]; in lauroyl polyoxyl-32 glycerides, Control", "value": 98.09, "unit": "%"},
      {"measurement": "purity (% relacorilant of relacorilant plus relacorilant-derived impurities)", "setting": "[2]; in lauroyl polyoxyl-32 glycerides, T0", "value": 98.13, "unit": "%"},
      {"measurement": "purity (% relacorilant of relacorilant plus relacorilant-derived impurities)", "setting": "[2]; in propylene glycol monocaprylate, 40° C./75% RH, 1 week", "value": 98.00, "unit": "%"},
      {"measurement": "purity (% relacorilant of relacorilant plus relacorilant-derived impurities)", "setting": "[2]; in propylene glycol monocaprylate, 40° C./75% RH, 2 week", "value": 97.84, "unit": "%"},
      {"measurement": "purity (% relacorilant of relacorilant plus relacorilant-derived impurities)", "setting": "[2]; in propylene glycol monocaprylate, 60° C., 1 week", "value": 97.51, "unit": "%"},
      {"measurement": "purity (% relacorilant of relacorilant plus relacorilant-derived impurities)", "setting": "[2]; in propylene glycol monocaprylate, 60° C., 2 week", "value": 96.65, "unit": "%"},
      {"measurement": "purity (% relacorilant of relacorilant plus relacorilant-derived impurities)", "setting": "[2]; in propylene glycol monocaprylate, Control", "value": 98.03, "unit": "%"},
      {"measurement": "purity (% relacorilant of relacorilant plus relacorilant-derived impurities)", "setting": "[2]; in propylene glycol monocaprylate, T0", "value": 98.09, "unit": "%"}
    ]}
  ]
}
